Test results as given in US11191870B2, “Gel of sodium hyaluronate cross-linked by polyethylene glycol epoxy derivative for injection and preparation method thereof” (JENKEM TECHNOLOGY CO., LTD. (BEIJING), priority 2016, dated 2021).

Assays:
cells L929 [1] = test: Cytotoxicity experiment, extraction method, relative growth rate of cells; conditions: absorbance, higher RCR = lower toxicity, crosslinker compounds
cells L929 [2] = test: Median inhibitory concentration (IC50) of crosslinker compounds in cells L929; assay type: cell-based; conditions: Mus musculus, L929, read-out: IC50 (median inhibitory concentration)
Experimental: A cytotoxicity experiment is achieved through detecting the propagation rate of cells referring to standards for biological evaluation-in vitro cell toxicity test of medical instruments. In the experiment, an extraction method is adopted, a cell toxicity test is performed by adopting cells L929, a relative growth rate (RCR) of the cells is calculated through assaying the absorbance value by using an enzyme-linked immunoassay instrument, and the higher the RCR, the better the biocompatibility and the lower the toxicity.

SMILES | RCR (relative growth rate of the cells), polyglycol diglycidyl ether crosslinkers (cells L929 [1]) [%] | IC50 (cells L929 [2]) [µM]
C(COCCOCC1CO1)OCCOCCOCC1CO1 (stereo not drawn) [Ia, tetraethylene glycol diglycidyl ether] | 62 | 127
C(COCCOCCOCCOCCOCCOCC1CO1)OCCOCCOCCOCCOCCOCCOCC1CO1 (stereo not drawn) [Ib, dodecaethylene glycol diglycidyl ether] | 89 | 2300
C(COCCOCCOCCOCCOCCOCCOCCOCCOCCOCCOCCOCC1CO1)OCCOCCOCCOCCOCCOCCOCCOCCOCCOCCOCCOCCOCC1CO1 (stereo not drawn) [Ic, tetracosaethylene glycol diglycidyl ether] | 89 | 1880
